Data taken from a compilation of properties of binary mixtures (doi:10.1007/s10953-022-01154-2).

Assay: xn = mol fraction of the nth substance listed
Conditions: 101.3 kPa

CC[n+]1ccn(C)c1.N#C[S-] + CC1COC(=O)O1
Conditions	electrical conductivity [S/m]	viscosity [mPa·s]
293.15 K, x1 = 0.0989	1.49	4.213
293.15 K, x1 = 0.4	2.17	9.86
293.15 K, x1 = 0.499	2.06	12.27
293.15 K, x1 = 0.599	1.96	15.04
293.15 K, x1 = 0.7045	1.89	18.06
293.15 K, x1 = 0.796	1.77	20.66
293.15 K, x1 = 0.8942	1.66	23.53
293.15 K, x1 = 1	1.58	26.76
298.15 K, x1 = 0.2045	2.28	5.073
298.15 K, x1 = 0.2984	2.45	6.601
298.15 K, x1 = 0.499	2.25	10.59
298.15 K, x1 = 0.796	1.97	17.73
298.15 K, x1 = 0.8942	1.86	20.22
298.15 K, x1 = 1	1.75	23.11
303.15 K, x1 = 0.0989	1.86	3.259
303.15 K, x1 = 0.2045	2.48	4.415
303.15 K, x1 = 0.2984	2.67	5.742
303.15 K, x1 = 0.4	2.58	7.328
303.15 K, x1 = 0.499	2.47	9.17
303.15 K, x1 = 0.599	2.38	11.19
303.15 K, x1 = 0.7045	2.28	13.39
303.15 K, x1 = 0.796	2.19	15.34
303.15 K, x1 = 0.8942	2.06	17.54
303.15 K, x1 = 1	1.95	20.12
308.15 K, x1 = 0.0989	2.09	2.877
308.15 K, x1 = 0.2045	2.7	3.859
308.15 K, x1 = 0.2984	2.92	4.972
308.15 K, x1 = 0.4	2.82	6.341
308.15 K, x1 = 0.499	2.71	7.916
308.15 K, x1 = 0.599	2.62	9.67
308.15 K, x1 = 0.7045	2.52	11.57
308.15 K, x1 = 0.796	2.42	13.28
308.15 K, x1 = 0.8942	2.29	15.21
308.15 K, x1 = 1	2.17	17.5
313.15 K, x1 = 0.0989	2.32	2.569
313.15 K, x1 = 0.2045	2.94	3.39
313.15 K, x1 = 0.2984	3.17	4.367
313.15 K, x1 = 0.4	3.07	5.56
313.15 K, x1 = 0.499	2.96	6.909
313.15 K, x1 = 0.599	2.87	8.432
313.15 K, x1 = 0.796	2.67	11.58
313.15 K, x1 = 0.8942	2.52	13.32
313.15 K, x1 = 1	2.39	15.32
318.15 K, x1 = 0.0989	2.55	2.299
318.15 K, x1 = 0.4	3.33	4.83
318.15 K, x1 = 0.499	3.22	5.988
318.15 K, x1 = 0.796	2.92	10.18
318.15 K, x1 = 1	2.64	13.45
323.15 K, x1 = 0.0989	2.8	2.074
323.15 K, x1 = 0.2984	3.72	3.34
323.15 K, x1 = 0.4	3.6	4.247
323.15 K, x1 = 0.7045	3.28	7.629
323.15 K, x1 = 0.796	3.18	8.83
323.15 K, x1 = 0.8942	3.03	10.15
323.15 K, x1 = 1	2.89	11.78
328.15 K, x1 = 0.0989	3.05	1.878
328.15 K, x1 = 0.2045	3.72	2.36
328.15 K, x1 = 0.2984	4	2.943
328.15 K, x1 = 0.4	3.88	3.72
328.15 K, x1 = 0.7045	3.55	6.692
328.15 K, x1 = 1	3.15	10.37
333.15 K, x1 = 0.2045	4.02	2.095
333.15 K, x1 = 0.2984	4.29	2.593
333.15 K, x1 = 0.4	4.18	3.284
333.15 K, x1 = 0.499	4.06	4.06
333.15 K, x1 = 0.599	3.96	4.939
333.15 K, x1 = 0.7045	3.84	5.885
333.15 K, x1 = 0.796	3.74	6.792
333.15 K, x1 = 0.8942	3.6	7.876
333.15 K, x1 = 1	3.43	9.21
338.15 K, x1 = 0.2045	4.34	–
338.15 K, x1 = 0.2984	4.61	–
338.15 K, x1 = 0.4	4.47	–
338.15 K, x1 = 0.499	4.35	–
338.15 K, x1 = 0.599	4.26	–
338.15 K, x1 = 0.7045	4.13	–
338.15 K, x1 = 0.796	4.02	–
338.15 K, x1 = 0.8942	3.89	–
338.15 K, x1 = 1	3.72	–
338.18 K, x1 = 0.0989	–	1.557
338.18 K, x1 = 0.2045	–	1.89
338.18 K, x1 = 0.4	–	2.891
338.18 K, x1 = 0.499	–	3.563
338.18 K, x1 = 0.599	–	4.34
338.18 K, x1 = 0.7045	–	5.225
338.18 K, x1 = 0.796	–	6.089
338.18 K, x1 = 0.8942	–	7.068
338.18 K, x1 = 1	–	8.1
343.15 K, x1 = 0.0989	3.88	1.432
343.15 K, x1 = 0.2045	4.67	1.699
343.15 K, x1 = 0.2984	4.92	2.057
343.15 K, x1 = 0.599	4.57	3.859
343.15 K, x1 = 0.7045	4.44	4.651
343.15 K, x1 = 0.796	4.32	5.421
343.15 K, x1 = 0.8942	4.2	6.296
